Results from US11203571B2, “Sulfonamides as modulators of sodium channels” (VERTEX PHARMACEUTICALS INCORPORATED, priority 2013, dated 2021).

Legend:
[1] = Human liver microsome assay; assay type: in vitro ADME; conditions: 1 uM substrate, 0.5 mg/mL liver microsome, 2 mM NADPH, 37° C., referenced against time zero control
Method: Human Liver Microsome Assay Protocol
Liver microsomal stability data were generated as follows. Substrates were incubated at 37° C. and shaken for 30 minutes in a phosphate buffered solution with human liver microsomes and the cofactor NADPH. A time zero control was similarly prepared, however with NADPH excluded. The final incubation concentrations were 1 uM substrate (0.2% DMSO), 0.5 mg/mL liver microsome, 2 mM NADPH, and 0.1 M phosphate. Reactions were quenched and proteins precipitated with the addition of 2 volume equivalents of ice cold acetonitrile containing an internal standard. Following a centrifugation step, aliquots from the quenched incubations were further diluted with 4 volume equivalents of a 50% aqueous methanol solution and then subjected to LC/MS/MS analysis for quantitation of parent substrate. Microsome stability values were calculated as the percent of substrate remaining after 30 minutes referenced against the time zero control.

human Nav1.8 = human Nav1.8 (Homo sapiens (Human), UniProt Q9Y5Y9); assay: E-VIPR optical membrane potential assay with electrical stimulation; assay type: cell-based; conditions: HEK cells expressing human Nav1.8
Sequence of human Nav1.8 (Q9Y5Y9 whole entry): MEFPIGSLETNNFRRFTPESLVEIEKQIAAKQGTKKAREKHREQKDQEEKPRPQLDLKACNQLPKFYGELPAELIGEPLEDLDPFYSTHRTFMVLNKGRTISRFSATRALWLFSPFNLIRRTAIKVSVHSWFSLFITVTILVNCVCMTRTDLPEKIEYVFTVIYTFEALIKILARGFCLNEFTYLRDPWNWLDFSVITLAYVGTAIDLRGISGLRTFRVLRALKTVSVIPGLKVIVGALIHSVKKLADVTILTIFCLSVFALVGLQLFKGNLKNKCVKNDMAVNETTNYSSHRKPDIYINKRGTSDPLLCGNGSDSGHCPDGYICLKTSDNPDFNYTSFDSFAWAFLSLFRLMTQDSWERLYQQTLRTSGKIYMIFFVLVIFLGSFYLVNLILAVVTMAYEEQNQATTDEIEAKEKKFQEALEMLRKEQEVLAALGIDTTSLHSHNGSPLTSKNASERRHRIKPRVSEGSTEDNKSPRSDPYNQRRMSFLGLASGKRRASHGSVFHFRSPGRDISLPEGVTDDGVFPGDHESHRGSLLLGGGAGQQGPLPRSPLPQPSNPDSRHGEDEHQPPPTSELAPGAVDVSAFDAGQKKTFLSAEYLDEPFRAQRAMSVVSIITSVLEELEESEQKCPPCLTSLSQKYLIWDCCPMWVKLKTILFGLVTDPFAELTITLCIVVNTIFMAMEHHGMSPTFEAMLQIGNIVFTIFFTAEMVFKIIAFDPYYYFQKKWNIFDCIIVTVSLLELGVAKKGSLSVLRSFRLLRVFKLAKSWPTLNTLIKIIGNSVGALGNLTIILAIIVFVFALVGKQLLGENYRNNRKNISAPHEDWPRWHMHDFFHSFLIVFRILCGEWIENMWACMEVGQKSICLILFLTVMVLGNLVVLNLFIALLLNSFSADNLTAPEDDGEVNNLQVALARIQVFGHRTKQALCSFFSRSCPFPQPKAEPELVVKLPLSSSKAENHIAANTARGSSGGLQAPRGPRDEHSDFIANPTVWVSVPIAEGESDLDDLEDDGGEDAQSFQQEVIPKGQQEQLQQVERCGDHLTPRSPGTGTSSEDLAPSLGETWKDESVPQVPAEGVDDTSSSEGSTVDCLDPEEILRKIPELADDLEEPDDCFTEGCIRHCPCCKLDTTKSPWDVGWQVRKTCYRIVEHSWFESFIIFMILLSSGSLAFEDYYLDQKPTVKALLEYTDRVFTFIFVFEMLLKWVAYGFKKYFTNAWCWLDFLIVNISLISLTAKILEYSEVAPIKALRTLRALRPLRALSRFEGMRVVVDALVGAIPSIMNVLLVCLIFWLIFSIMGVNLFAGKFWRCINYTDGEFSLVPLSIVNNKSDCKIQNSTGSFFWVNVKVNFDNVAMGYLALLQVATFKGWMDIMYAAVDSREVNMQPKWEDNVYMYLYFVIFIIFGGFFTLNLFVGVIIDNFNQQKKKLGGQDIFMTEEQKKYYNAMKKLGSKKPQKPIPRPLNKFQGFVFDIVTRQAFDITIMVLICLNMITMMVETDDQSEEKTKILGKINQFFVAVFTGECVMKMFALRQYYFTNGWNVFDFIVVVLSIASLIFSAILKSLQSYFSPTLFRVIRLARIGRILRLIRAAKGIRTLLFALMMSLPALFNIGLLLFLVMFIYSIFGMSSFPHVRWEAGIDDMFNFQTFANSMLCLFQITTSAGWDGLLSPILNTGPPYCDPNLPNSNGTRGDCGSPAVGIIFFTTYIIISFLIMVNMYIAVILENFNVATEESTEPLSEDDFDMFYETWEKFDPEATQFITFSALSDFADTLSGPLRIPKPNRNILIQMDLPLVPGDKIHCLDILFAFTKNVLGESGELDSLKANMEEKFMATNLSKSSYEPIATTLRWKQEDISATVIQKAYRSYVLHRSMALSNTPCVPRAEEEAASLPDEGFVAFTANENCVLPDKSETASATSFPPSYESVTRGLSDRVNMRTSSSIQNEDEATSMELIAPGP
Text: E-VIPR Optical Membrane Potential Assay Method with Electrical Stimulation
Sodium channels are voltage-dependent proteins that can be activated by inducing membrane voltage changes by applying electric fields. The electrical stimulation instrument and methods of use are described in Ion Channel Assay Methods PCT/US01/21652, herein incorporated by reference and are referred to as E-VIPR. The instrument comprises a microtiter plate handler, an optical system for exciting the coumarin dye while simultaneously recording the coumarin and oxonol emissions, a waveform generator, a current- or voltage-controlled amplifier, and a device for inserting electrodes in well. Under integrated computer control, this instrument passes user-programmed electrical stimulus protocols to cells within the wells of the microtiter plate.
24 hours before the assay on E-VIPR, HEK cells expressing human Nav1.8 were seeded in 384-well poly-lysine coated plates at 15,000-20,000 cells per well. HEK cells were grown in media (exact composition is specific to each cell type and NaV subtype) supplemented with 10% FBS (Fetal Bovine Serum, qualified; GibcoBRL #16140-071) and 1% Pen-Strep (Penicillin-Streptomycin; GibcoBRL #15140-122). Cells were grown in vented cap flasks, in 90% humidity and 5% CO2.
• 100 mg/mL Pluronic F-127 (Sigma #P2443), in dry DMSO • Compound Plates: 384-well round bottom plate, e.g. Corning 384-well Polypropylene Round Bottom #3656 • Cell Plates: 384-well tissue culture treated plate, e.g. Greiner #781091-1B • 10 mM DiSBAC6(3) (Aurora #00-100-010) in dry DMSO • 10 mM CC2-DMPE (Aurora #00-100-008) in dry DMSO • 200 mM ABSC1 in H20
Bath1 buffer: Glucose 10 mM (1.8 g/L), Magnesium Chloride (Anhydrous), 1 mM (0.095 g/L), Calcium Chloride, 2 mM (0.222 g/L), HEPES 10 mM (2.38 g/L), Potassium Chloride, 4.5 mM (0.335 g/L), Sodium Chloride 160 mM (9.35 g/L).
Hexyl Dye Solution: Bath1 Buffer+0.5% β-cyclodextrin (make this prior to use, Sigma #C4767), 8 μM CC2-DMPE+2.5 μM DiSBAC6(3). To make the solution Added volume of 10% Pluronic F127 stock equal to volumes of CC2-DMPE+DiSBAC6(3). The order of preparation was first mix Pluronic and CC2-DMPE, then added DiSBAC6(3) while vortexing, then added Bath1+β-Cyclodextrin.
1) Pre-spotted compounds (in neat DMSO) into compound plates. Vehicle control (neat DMSO), the positive control (20 mM DMSO stock tetracaine, 125 μM final in assay) and test compounds were added to each well at 160× desired final concentration in neat DMSO. Final compound plate volume was 80 μL (80-fold intermediate dilution from 1 μL DMSO spot; 160-fold final dilution after transfer to cell plate). Final DMSO concentration for all wells in assay was 0.625%.
2) Prepared Hexyl Dye Solution.
3) Prepared cell plates. On the day of the assay, medium was aspirated and cells were washed three times with 100 μL of Bath1 Solution, maintaining 25 μL residual volume in each well.
4) Dispensed 25 μL per well of Hexyl Dye Solution into cell plates. Incubated for 20-35 minutes at room temp or ambient conditions.
5) Dispensed 80 μL per well of Bath1 into compound plates. Acid Yellow-17 (1 mM) was added and Potassium Chloride was altered from 4.5 to 20 mM depending on the NaV subtype and assay sensitivity.
6) Washed cell plates three times with 100 μL per well of Bath1, leaving 25 μL of residual volume. Then transferred 25 uL per well from Compound Plates to Cell Plates. Incubated for 20-35 minutes at room temp/ambient condition.
7) Read Plate on E-VIPR. Used the current-controlled amplifier to deliver stimulation wave pulses for 10 seconds and a scan rate of 200 Hz. A pre-stimulus recording was performed for 0.5 seconds to obtain the un-stimulated intensities baseline. The stimulatory waveform was followed by 0.5 seconds of post-stimulation recording to examine the relaxation to the resting state.
Data was analyzed and reported as normalized ratios of emission intensities measured in the 460 nm and 580 nm channels. […]

Row | Structure (SMILES) | HLM: percent unchanged after 30 min [1] | IC50 (human Nav1.8)
1 | NS(=O)(=O)c1cccc(NC(=O)c2ccc(C(F)(F)F)cc2Oc2ccc(F)cc2)c1 [Compound 1, 2-(4-fluorophenoxy)-N-(3-sulfamoylphenyl)-4-(trifluoromethyl)benzamide] | 83% | 14 nM
2 | NS(=O)(=O)c1cccc(NC(=O)c2ccc(C(F)(F)F)cc2Oc2ccc(F)cc2F)c1 [Compound 2, 2-(2,4-difluorophenoxy)-N-(3-sulfamoylphenyl)-4-(trifluoromethyl)benzamide] | 97% | 22 nM
3 | NS(=O)(=O)c1cccc(NC(=O)c2cc(C(F)(F)F)ccc2Oc2ccc(F)cc2)c1 [Compound 3, 2-(4-fluorophenoxy)-N-(3-sulfamoylphenyl)-5-(trifluoromethyl)benzamide] | 117% | 16 nM
4 | N#Cc1ccc(C(=O)Nc2cccc(S(N)(=O)=O)c2)c(Oc2ccc(F)cc2Cl)c1 [Compound 4, 2-(2-chloro-4-fluoro-phenoxy)-4-cyano-N-(3-sulfamoylphenyl)benzamide] | 118% | 27 nM
5 | NS(=O)(=O)c1cccc(NC(=O)c2cc(Cl)ccc2Oc2ccc(F)cc2)c1 [Compound 5, 5-chloro-2-(4-fluorophenoxy)-N-(3-sulfamoylphenyl)benzamide] | 107% | 21 nM
6 | NS(=O)(=O)c1cccc(NC(=O)c2cc(C(F)(F)F)ccc2Oc2ccc(F)cc2F)c1 [Compound 6, 2-(2,4-difluorophenoxy)-N-(3-sulfamoylphenyl)-5-(trifluoromethyl)benzamide] | 106% | 13 nM
7 | Cc1cc(C(=O)Nc2cccc(S(N)(=O)=O)c2)c(Oc2ccc(F)cc2)cc1Cl [Compound 7, 4-chloro-2-(4-fluorophenoxy)-5-methyl-N-(3-sulfamoylphenyl)benzamide] | 78% | 12 nM
8 | NS(=O)(=O)c1cccc(NC(=O)c2ccc(Cl)cc2Oc2ccc(F)cc2Cl)c1 [Compound 8, 4-chloro-2-(2-chloro-4-fluorophenoxy)-N-(3-sulfamoylphenyl)benzamide] | 108% | 10 nM
9 | Cc1cc(F)ccc1Oc1cc(C#N)ccc1C(=O)Nc1cccc(S(N)(=O)=O)c1 [Compound 9, 4-cyano-2-(4-fluoro-2-methyl-phenoxy)-N-(3-sulfamoylphenyl)benzamide] | 102% | 28 nM
10 | COc1cc(F)ccc1Oc1cc(C#N)ccc1C(=O)Nc1cccc(S(N)(=O)=O)c1 [Compound 10, 4-cyano-2-(4-fluoro-2-methoxyphenoxy)-N-(3-sulfamoylphenyl)benzamide] | 86% | 20 nM
11 | N#Cc1ccc(Oc2ccc(F)cc2Cl)c(C(=O)Nc2cccc(S(N)(=O)=O)c2)c1 [Compound 11, 2-(2-chloro-4-fluorophenoxy)-5-cyano-N-(3-sulfamoylphenyl)benzamide] | 89% | 24 nM
12 | Cc1cc(F)ccc1Oc1cccc(C(F)(F)F)c1C(=O)Nc1cccc(S(N)(=O)=O)c1 [Compound 12, 2-(4-fluoro-2-methylphenoxy)-N-(3-sulfamoylphenyl)-6-(trifluoromethyl)benzamide] | 94% | 9 nM
13 | COc1cc(F)ccc1Oc1cccc(C(F)(F)F)c1C(=O)Nc1cccc(S(N)(=O)=O)c1 [Compound 13, 2-(4-fluoro-2-methoxyphenoxy)-N-(3-sulfamoylphenyl)-6-(trifluoromethyl)benzamide] | 78% | 2 nM
14 | COc1cc(F)ccc1Oc1cc(C(F)(F)F)ccc1C(=O)Nc1cccc(S(N)(=O)=O)c1 [Compound 14, 2-(4-fluoro-2-methoxyphenoxy)-N-(3-sulfamoylphenyl)-4-(trifluoromethyl)benzamide] | 83% | 5 nM
15 | COc1cc(F)ccc1Oc1cc(Cl)ccc1C(=O)Nc1cccc(S(N)(=O)=O)c1 [Compound 15, 4-chloro-2-(4-fluoro-2-methoxy-phenoxy)-N-(3-sulfamoylphenyl)benzamide] | 81% | 13 nM
16 | COc1cc(F)ccc1Oc1ccc(Cl)cc1C(=O)Nc1cccc(S(N)(=O)=O)c1 [Compound 16, 5-chloro-2-(4-fluoro-2-methoxyphenoxy)-N-(3-sulfamoylphenyl)benzamide] | 86% | 7 nM
17 | NS(=O)(=O)c1cccc(NC(=O)c2cc(Cl)ccc2Oc2ccc(F)cc2Cl)c1 [Compound 17, 5-chloro-2-(2-chloro-4-fluorophenoxy)-N-(3-sulfamoylphenyl)benzamide] | 102% | 5 nM
18 | Cc1cc(F)ccc1Oc1cc(C(F)(F)F)ccc1C(=O)Nc1cccc(S(N)(=O)=O)c1 [Compound 18, 2-(4-fluoro-2-methylphenoxy)-N-(3-sulfamoylphenyl)-4-(trifluoromethyl)benzamide] | 98% | 7 nM
19 | Cc1cc(F)ccc1Oc1cc(Cl)ccc1C(=O)Nc1cccc(S(N)(=O)=O)c1 [Compound 19, 4-chloro-2-(4-fluoro-2-methyl-phenoxy)-N-(3-sulfamoylphenyl)benzamide] | 94% | 16 nM
20 | Cc1cc(F)ccc1Oc1ccc(Cl)cc1C(=O)Nc1cccc(S(N)(=O)=O)c1 [Compound 20, 5-chloro-2-(4-fluoro-2-methylphenoxy)-N-(3-sulfamoylphenyl)benzamide] | 96% | 4 nM
21 | Cc1cc(F)ccc1Oc1ccc(F)cc1C(=O)Nc1cccc(S(N)(=O)=O)c1 [Compound 21, 5-fluoro-2-(4-fluoro-2-methylphenoxy)-N-(3-sulfamoylphenyl)benzamide] | 96% | 23 nM
22 | COc1ccc(Oc2cc(Cl)c(Cl)cc2C(=O)Nc2cccc(S(N)(=O)=O)c2)c(OC)c1 [Compound 76, 4,5-dichloro-2-(2,4-dimethoxyphenoxy)-N-(3-sulfamoylphenyl)benzamide] | 58% | 
23 | COc1cc(Cl)ccc1Oc1cc(Cl)ccc1C(=O)Nc1cccc(S(N)(=O)=O)c1 [Compound 85, 4-chloro-2-(4-chloro-2-methoxyphenoxy)-N-(3-sulfamoylphenyl)benzamide] |  | 15 nM
24 | CC(C)Oc1ccc(Oc2cc(Cl)ccc2C(=O)Nc2cccc(S(N)(=O)=O)c2)cc1 [Compound 87, 4-chloro-2-(4-isopropoxyphenoxy)-N-(3-sulfamoylphenyl)benzamide] |  | 29 nM
25 | COc1ccc(Oc2cc(C(F)(F)F)cc(C3CC3)c2C(=O)Nc2cccc(S(N)(=O)=O)c2)cc1F [Compound 100, 2-cyclopropyl-6-(3-fluoro-4-methoxyphenoxy)-N-(3-sulfamoylphenyl)-4-(trifluoromethyl)benzamide] |  | 18 nM
